Here are results for seven compounds from patent US8247404B2, “Derivatives of 2-oxoalkyl-1-piperazin-2-one, preparation method thereof and therapeutic use of same” (Sanofi, priority 2008, dated 2012).

Where a name gives a salt, the structure may show the parent alone.

The target of data set [1] is T1, p75NTR receptor (Homo sapiens, UniProt P08138).
T1 sequence (P08138 29-427): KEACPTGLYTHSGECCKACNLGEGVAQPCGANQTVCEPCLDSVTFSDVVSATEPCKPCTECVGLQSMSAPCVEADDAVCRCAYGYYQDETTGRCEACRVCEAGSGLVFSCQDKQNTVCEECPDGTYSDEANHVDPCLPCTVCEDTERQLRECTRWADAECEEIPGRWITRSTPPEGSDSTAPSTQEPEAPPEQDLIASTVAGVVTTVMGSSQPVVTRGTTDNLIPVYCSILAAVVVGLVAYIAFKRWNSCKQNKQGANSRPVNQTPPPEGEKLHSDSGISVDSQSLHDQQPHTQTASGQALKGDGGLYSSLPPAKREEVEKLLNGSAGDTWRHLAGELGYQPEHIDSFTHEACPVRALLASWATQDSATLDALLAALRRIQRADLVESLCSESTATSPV
The experiment in a line: Dimerization of the p75NTR receptor independently of its ligand (soluble p75NTR-alkaline phosphatase binding to SK-N-BE Bep 75 cells). Details: the Bep 75 clone, stably expressing the whole form of the human p75^NTRreceptor; a soluble form of the p75^NTRreceptor (extracellular part of the receptor); expressed in transfected cells; host or cells: SK-N-BE Bep 75 cells (membrane receptor); transiently transfected HEK293 cells (secreted soluble p75NTR-alkaline phosphatase, used as culture supernatant). The note with it: soluble p75NTR-alkaline phosphatase 10 nM, 1 h preincubation at 37° C. How it is done: (§1) The SK-N-BE parent strain (human neuroblastoma) and the Bep 75 clone, stably expressing the whole form of the human p75^NTRreceptor (SK-N-BE Bep 75) are cultured conventionally in a RPMI culture medium containing FCS (5%), sodium pyruvate (1 mM) and glutamine (4 mM). For the SK-N-BE Bep 75 cells, hygromycin (200 μl/20 ml of medium) is added as selection agent.
Study of the dimerization of the p75^NTRreceptor independently of its ligand
The p75^NTRreceptor dimerization study is carried out on a cell suspension of the SK-N-BE Bep 75 strain. The cells (2.5 10^4cells/well) are placed in wells (96-well plate) for 24 h, and then preincubated for 1 h at 37° C. in the presence or absence of the compounds according to the invention. Supernatant is then added, this supernatant being derived from the culture of HEK293 human cells of renal origin expressing, after 48 h of transfection, and secreting a soluble form of the p75^NTRreceptor (extracellular part of the receptor) coupled to an alkaline phosphatase, at the final concentration of 10 nM. The quantification of the specific binding of the soluble p75^NTRreceptor to the receptor present on SK-N-BE Bep 75 cells is determined by measuring the alkaline phosphatase enzymatic activity after incubation of the cells for 1 hour at 37° C. in the presence of the supernatant. After filtration and transfer of the filters into 24-well plates, the alkaline phosphatase activity is determined by adding CDP-Star chemiluminescent substrate (ready-to-use, Roche).

In data set [2] the test system is human neuroblastoma strains SH-SY-5Y and SK-N-BE Bep 75. Description: Measurement of apoptosis (NGF-induced, cell death detection ELISA). It is filed as cell-based. The note with it: SH-SY5Y, NGF 10 ng/ml, cell strain not given, read-out: IC50, inhibitory activity on NGF-induced apoptosis. How it is done:
The SH-SY-5Y strain (human neuroblastoma) is cultured conventionally in a DMEM culture medium (Dulbecco's Modified Eagle's Medium) (Gibco BRL, France) containing FCS (5%) (foetal calf serum) (Boehringer Mannheim, Germany), sodium pyruvate (1 mM) and glutamine (4 mM) in culture flasks coated with collagen (Becton Dickinson, France).
as §1
The cells (human neuroblastoma strains SH-SY-5Y and SK-N-BE Bep 75) are placed in 35 mm diameter Petri dishes (Biocoat collagen I), (10^5cells/well) in an appropriate culture medium containing 5% of FCS for 24 h. […] The degrees of apoptosis are measured 48 hours after the treatments in the case of the SH-SY-5Y strain, and 24 hours after the treatments in the case of the SK-N-BE Bep 75 strain, by quantification of the DNA fragment-associated cytoplasmic histones (cell death detection ELISA, Boehringer Mannheim, Germany). The degrees of apoptosis are expressed as amount of oligonucleosomes/10^5cells. […]

Data set [3] deals with T1, p75NTR receptor. Description: Binding of 125I NGF to the p75NTR receptor (competition, SK-N-BE Bep 75 cell suspension). Further details: the Bep 75 clone, stably expressing the whole form of the human p75^NTRreceptor; expressed in transfected cells; host or cells: SK-N-BE Bep 75 (human neuroblastoma clone, hygromycin selection). The note with it: SK-N-BE Bep 75 cells; 125I NGF 0.3 nM. The procedure: as §1
Study of the binding of the ^125I NGF to the p75^NTRreceptor
The NGF binding study (nerve grown factor radiolabelled with iodine-125, Amersham—2000 Ci/mmol) is carried out on a cell suspension of the SK-N-BE Bep 75 strain in accordance with the method described by Weskamp (Neuron, 1991, 6, 649-663). The nonspecific binding is determined by measuring the total binding after one hour of pre-incubation with the cells at 37° C. in the presence of non-radiolabelled NGF (1 μM). The specific binding is calculated by the difference between the total binding measurement and the non-specific binding measurement. The competition experiments are carried out using an iodinated NGF (^125I NGF) concentration of 0.3 nM.

The compound `Cc1ccc(N2CCN(CC(=O)N3CC=C(c4ccc(Cl)c(C(F)(F)F)c4)CC3)CC2=O)nc1` (as salt: HCl) [Compound 2, 4-{2-[4-(4-chloro-3-trifluoromethylphenyl)-3,6-dihydro-2H-pyridin-1-yl]-2-oxoethyl}-1-(5-methylpyridin-2-yl)piperazin-2-one] showed a melting point of 236 to 239 °C. Take `Cc1ccc(N2CCN(CC(=O)N3CC=C(c4ccc(Cl)c(C(F)(F)F)c4)CC3)CC2=O)nc1` [Compound 2, 4-{2-[4-(4-chloro-3-trifluoromethylphenyl)-3,6-dihydro-2H-pyridin-1-yl]-2-oxoethyl}-1-(5-methylpyridin-2-yl)piperazin-2-one]: the IC50 in data set [1] is 3.88 nM.

Take `O=C(CN1CCN(c2ccccn2)C(=O)C1)N1CC=C(c2ccc(Cl)c(C(F)(F)F)c2)CC1` [Compound 5, 4-{2-[4-(4-chloro-3-trifluoromethylphenyl)-3,6-dihydro-2H-pyridin-1-yl]-2-oxoethyl}-1-pyridin-2-ylpiperazin-2-one]: the IC50 in data set [2] stood at 52 nM. With `O=C(CN1CCN(c2ccc(C(F)(F)F)cn2)C(=O)C1)N1CC=C(c2ccc(Cl)c(C(F)(F)F)c2)CC1` (as salt: HCl) [Compound 1, 4-{2-[4-(4-chloro-3-trifluoromethylphenyl)-3,6-dihydro-2H-pyridin-1-yl]-2-oxoethyl}-1-(5-trifluoromethylpyridin-2-yl)piperazin-2-one], the melting point fell in the range of 210 to 211 °C.

As for `O=C(CN1CCN(c2ccccn2)C(=O)C1)N1CC=C(c2ccc(Cl)c(C(F)(F)F)c2)CC1` (as salt: HCl) [Compound 5, 4-{2-[4-(4-chloro-3-trifluoromethylphenyl)-3,6-dihydro-2H-pyridin-1-yl]-2-oxoethyl}-1-pyridin-2-ylpiperazin-2-one], the melting point was in the range of 160 to 163 °C. Compound `O=C(CN1CCN(c2ccc(C(F)(F)F)cn2)C(=O)C1)N1CC=C(c2ccc(Cl)cc2)CC1` [Compound 3, 4-{2-[4-(4-chlorophenyl)-3,6-dihydro-2H-pyridin-1-yl]-2-oxoethyl}-1-(5-trifluoromethylpyridin-2-yl)piperazin-2-one] yielded a melting point of 141 to 143 °C. The compound also gave a concentration for half-maximal inhibition (IC50) in data set [3] of 0.1 nM. This compound displayed an IC50 in data set [1] of 0.11 nM.

Regarding `O=C(CN1CCN(c2ccc(C(F)(F)F)cn2)C(=O)C1)N1CC=C(c2ccc(Cl)c(C(F)(F)F)c2)CC1` [Compound 1, 4-{2-[4-(4-chloro-3-trifluoromethylphenyl)-3,6-dihydro-2H-pyridin-1-yl]-2-oxoethyl}-1-(5-trifluoromethylpyridin-2-yl)piperazin-2-one], the half-maximal inhibitory concentration (IC50) in data set [2] was 1.61 nM; in data set [3], 5.2 nM; in data set [1] it was 1.34 nM.
